Measurements taken from EP4389751A1, “HETEROCYCLIC COMPOUNDS AND USES THEREOF” (Kumquat Biosciences Inc., priority 2021, dated 2024).
Read-outs that look alike come from different tables or passages of the source.

Key:
K-Ras G12S = target: T1, K-Ras G12S (Homo sapiens, UniProt P01116, G12S); assay: HTRF assay of the K-Ras / SOS1 interaction; format: biochemical; settings: IC50 (against K-Ras G12D) to IC50 (against K-Ras G12S)
T1 construct: made in house; host or cells: E. coli (e.g., BL21 (DE3))
Procedure, shortened: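 GST-K-Ras G12S with anti-GST-Eu donor and His-hSOS1 with anti-6His-XL665 acceptor in ~5 mM HEPES pH 7.4, ~150 mM NaCl, 1 mM DTT, 0.05% BSA, 0.0025% Igepal. Read after ~10 min or longer; IC50 from 665/620 nm ratio, duplicates at 10 µM down to 0.01 µM.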

GP2D cells = assay: Cell proliferation assay (CellTiter-Glo), K-Ras G12D cells; format: cell-based; settings: read-out: Inhibition of GP2D Cells (IC50)
Method: ASPC-1 (ATCC CRL-1682), Panc-10.05 (ATCC CRL-2547), A427, and GP2D (Sigma 95090714) cell lines comprise a G12D mutation and can be used to assess Ras cellular signaling in vitro, e.g., in response to the compounds herein. […] ASPC-1 culture medium is prepared with RPMI-1640 and 10% heat-inactivated FBS. Panc-10.05 culture medium is prepared with RPMI-1640, 10 Units/ml human recombinant insulin, and 10% FBS. A427 cell culture is prepared with RPMI-1640 and 10% heat-inactivated FBS. GP2D culture medium is prepared with DMEM with 2mM glutamine and 10% heat-inactivated FBS. A Cell Titer-Glo (CTG) luminescent based assay (Promega) is used to assess growth of the cells, as a measurement of the ability of the compounds herein to inhibit Ras signaling in the cells. The cells (e.g., 800 per well) are seeded in their respective culture medium in standard tissue culture-treated 384-well format plates (Falcon #08-772-116) or ultra-low attachment surface 384-well format plates (S-Bio # MS-9384UZ ). The day after plating, cells are treated with a dilution series (e.g., a 9 point 3-fold dilution series) of the compounds herein (e.g., approximately 40 µl final volume per well). Cell viability can be monitored (e.g., approximately 5 days later) according to the manufacturer's recommended instructions, where the CellTiter-Glo reagent is added (e.g., approximately 10 µl), vigorously mixed, covered, and placed on a plate shaker (e.g., approximately for 20 min) to ensure sufficient cell lysis prior to assessment of luminescent signal. The IC50 values are determined using the four parameter fit. The resulting IC50 value is a measurement of the ability of the compounds herein to reduce cell growth of Ras-driven cells (e.g., tumor cell lines) in vitro and/or in vivo.

Row | Compound | Ratio of IC50 KRAS G12D vs. IC50 KRAS G12S (K-Ras G12S) | IC50 (GP2D cells; GP2D cells (K-Ras G12D)) [nM] | IC50 (GP2D cells; GP2d) [nM]
1 | Nc1nc2c(-c3c(Cl)cc4c(N5CCC6CN(C(=O)n7cncn7)CC6C5)nc(OC[C@@]56CCCN5C[C@H](F)C6)nc4c3F)ccc(F)c2s1 (stereo partly drawn) [Compound A294, (5-(7-(2-amino-7-fluorobenzo[d]thiazol-4-yl)-6-chloro-8-fluoro-2-(((2R,7aS)-2-fluorotetrahydro-1H-pyrrolizin-7a(5H)-yl)methoxy)quinazolin-4-yl)octahydro-2H-pyrrolo[3,4-c]pyridin-2-yl)(1H-1,2,4-triazol-1-yl)methanone] | A (A: indicates that the ratio of IC50 against KrasG12D vs. IC50 against KrasG12S is 1-fold or greater) | 1000 to 10000 | 
2 | 2-amino-4-(6-chloro-8-fluoro-2-(((2R,7aS)-2-fluorotetrahydro-1H-pyrrolizin-7 a(5H)-yl)methoxy)-4-(8-(4-methyl-1H-1,2,3-triazole-1-carbonyl)-3,8-diazabicyclo[3.2.1]octan-3-yl)quinazolin-7-yl)-7-fluorobenzo[b]thiophene-3-carbonitrile [Compound A189] | A (A: indicates that the ratio of IC50 against KrasG12D vs. IC50 against KrasG12S is 1-fold or greater) | ≤ 1000 | 
3 | Nc1nc2c(-c3c(Cl)cc4c(N5CC6(CN(C(=O)n7cncn7)C6)C5)nc(OC[C@@]56CCCN5C[C@H](F)C6)nc4c3F)ccc(F)c2s1 [Compound A264, (6-(7-(2-amino-7-fluorobenzo[d]thiazol-4-yl)-6-chloro-8-fluoro-2-(((2R,7aS)-2-fluorotetrahydro-1H-pyrrolizin-7a(5H)-yl)methoxy)quinazolm-4-yl)-2,6-diazaspiro[3.3]heptan-2-yl)(1H-1,2,4-triazol-1-yl)methanone] | A (A: indicates that the ratio of IC50 against KrasG12D vs. IC50 against KrasG12S is 1-fold or greater) | 1000 to 10000 | 
4 | N#Cc1cccn1C(=O)N1C2CCC1CN(c1nc(OC[C@@]34CCCN3C[C@H](F)C4)nc3c(F)c(-c4ccc(F)c5sc(N)nc45)c(Cl)cc13)C2 [Compound A121, 1-(3-(7-(2-amino-7-fluorobenzo[d]thiazol-4-yl)-6-chloro-8-fluoro-2-(((2R,7aS)-2-fluorotetrahydro-1H-pyrrolizin-7a(5H)-yl)methoxy)quinazolin-4-yl)-3,8-diazabicyclo[3.2. 1]octane-8-carbonyl)-1H-pyrrole-2-carbonitrile] | A (A: indicates that the ratio of IC50 against KrasG12D vs. IC50 against KrasG12S is 1-fold or greater) |  | ≤ 1000
5 | N#Cc1cnn(C(=O)N2CC3CCC(C2)N3c2nc(OC[C@@]34CCCN3C[C@H](F)C4)nc3c(F)c(-c4ccc(F)c5sc(N)nc45)c(Cl)cc23)c1 [Compound A112, 1-(8-(7-(2-amino-7-fluorobenzo[d]thiazol-4-yl)-6-chloro-8-fluoro-2-(((2R,7aS)-2-fluorotetrahydro-1H-pyrrolizin-7a(5H)-yl)methoxy)quinazolin-4-yl)-3,8-diazabicyclo[3.2. 1]octane-3-carbonyl)-1H-pyrazole-4-carbonitrile] | A (A: indicates that the ratio of IC50 against KrasG12D vs. IC50 against KrasG12S is 1-fold or greater) |  | ≤ 1000
6 | Nc1nc2c(-c3c(Cl)cc4c(NC5CCN(C(=O)n6cncn6)CC5)nc(OC[C@@]56CCCN5C[C@H](F)C6)nc4c3F)ccc(F)c2s1 [Compound A187, (4-((7-(2-amino-7-fluorobenzo[d]thiazol-4-yl)-6-chloro-8-fluoro-2-(((2R,7aS)-2-fluorotetrahydro-1H-pyrrolizin-7a(5H)-yl)methoxy)quinazolin-4-yl)amino)piperidin-1-yl)(1H-1,2,4-triazol-1-yl)methanone] | A (A: indicates that the ratio of IC50 against KrasG12D vs. IC50 against KrasG12S is 1-fold or greater) | 1000 to 10000 | 
7 | Nc1nc2c(-c3c(Cl)cc4c(NC5CCN(C(=O)n6cnc(F)c6)CC5)nc(OC[C@@]56CCCN5C[C@H](F)C6)nc4c3F)ccc(F)c2s1 [Compound A193, (4-((7-(2-amino-7-fluorobenzo[d]thiazol-4-yl)-6-chloro-8-fluoro-2-(((2R,7aS)-2-fluorotetrahydro-1H-pyrrolizin-7a(5H)-yl)methoxy)quinazolin-4-yl)amino)piperidin-1-yl)(4-fluoro-1H-imidazol-1-yl)methanone] | A (A: indicates that the ratio of IC50 against KrasG12D vs. IC50 against KrasG12S is 1-fold or greater) | 1000 to 10000 | 
8 | N#Cc1ccn(C(=O)N2C3CCC2CN(c2nc(OC[C@@]45CCCN4C[C@H](F)C5)nc4c(F)c(-c5ccc(F)c6sc(N)nc56)c(Cl)cc24)C3)c1 [Compound A188, 1-(3-(7-(2-amino-7-fluorobenzo[d]thiazol-4-yl)-6-chloro-8-fluoro-2-(((2R,7aS)-2-fluorotetrahydro-1H-pyrrolizin-7a(5H)-yl)methoxy)quinazolin-4-yl)-3,8-diazabicyclo[3.2. 1]octane-8-carbonyl)-1H-pyrrole-3-carbonitrile] | A (A: indicates that the ratio of IC50 against KrasG12D vs. IC50 against KrasG12S is 1-fold or greater) |  | ≤ 1000
9 | Nc1nc2c(-c3c(Cl)cc4c(N[C@@H]5C[C@H]6CC[C@@H](C5)N6C(=O)n5cncn5)nc(OC[C@@]56CCCN5C[C@H](F)C6)nc4c3F)ccc(F)c2s1 [Compound A286, ((1R,3s,5S)-3-((7-(2-amino-7-fluorobenzo[d]thiazol-4-yl)-6-chloro-8-fluoro-2-(((2R,7aS)-2-fluorotetrahydro-1H-pyrrolizin-7a(5H)-yl)methoxy)quinazolin-4-yl)amino)-8-azabicyclo[3.2.1]octan-8-yl)(1H-1,2,4-triazol-1-yl)methanone] | A (A: indicates that the ratio of IC50 against KrasG12D vs. IC50 against KrasG12S is 1-fold or greater) |  | 1000 to 10000
10 | Nc1nc2c(-c3c(Cl)cc4c(N5CC6CCC(C5)N6C(=O)n5cccn5)nc(OC[C@@]56CCCN5C[C@H](F)C6)nc4c3F)ccc(F)c2s1 [Compound A130, (3-(7-(2-amino-7-fluorobenzo[d]thiazol-4-yl)-6-chloro-8-fluoro-2-(((2R,7aS)-2-fluorotetrahydro-1H-pyrrolizin-7a(5H)-yl)methoxy)quinazolin-4-yl)-3,8-diazabicyclo[3.2.1]octan-8-yl)(1H-pyrazol-1-yl)methanone] | A (A: indicates that the ratio of IC50 against KrasG12D vs. IC50 against KrasG12S is 1-fold or greater) |  | 1000 to 10000
11 | C#Cc1c(F)ccc2cccc(-c3ccc4c(N5CC6CCC(C5)N6C(=O)n5cncn5)nc(OC[C@@]56CCCN5C[C@H](F)C6)nc4c3F)c12 [Compound A229, (3-(7-(8-ethynyl-7-fluoronaphthalen-1-yl)-8-fluoro-2-(((2R,7aS)-2-fluorotetrahydro-1H-pyrrolizin-7a(5H)-yl)methoxy)quinazolin-4-yl)-3,8-diazabicyclo[3.2.1]octan-8-yl)(1H-1,2,4-triazol-1-yl)methanone] |  |  | 1000 to 10000
12 | C#Cc1c(F)ccc2cc(O)cc(-c3ccc4c(N5CC6CCC(C5)N6C(=O)n5cncn5)nc(OC[C@@]56CCCN5C[C@H](F)C6)nc4c3F)c12 [Compound A281, (3-(7-(8-ethynyl-7-fluoro-3-hydroxynaphthalen-1-yl)-8-fluoro-2-(((2R,7aS)-2-fluorotetrahydro-1H-pyrrolizin-7a(5H)-yl)methoxy)quinazolin-4-yl)-3,8-diazabicyclo[3.2.1]octan-8-yl)(1H-1,2,4-triazol-1-yl)methanone] |  | ≤ 1000 | 
